Three compounds from patent publication US5763483A, “Carbocyclic compounds” (priority 1996, dated 1998) can be followed below.

pIC50: −log10 of the molar value.

For this experiment, the target named is neuraminidase. As to the kind of experiment: Enzyme Inhibition (in vitro neuraminidase screen). The class given is biochemical. The text has this: Compositions of the invention are screened for inhibitory activity against neuraminidase by any of the conventional techniques for evaluating enzyme activity. Within the context of the invention, typically compositions are first screened for inhibition of neuraminidase in vitro and compositions showing inhibitory activity are then screened for activity in vivo. Compositions having in vitro Ki (inhibitory constants) of less then about 5×10^-6 M, typically less than about 1×10^-7 M and preferably less than about 5×10^-8 M are preferred for in vivo use.
Useful in vitro screens have been described in detail and will not be elaborated here. However, Itzstein, M. von et al.; "Nature", 363(6428):418-423 (1993), in particular page 420, column 2, full paragraph 3, to page 421, column 2, first partial paragraph, describes a suitable in vitro assay of Potier, M.; et al.; "Analyt. Biochem.", 94:287-296 (1979), as modified by Chong, A. K. J.; et al.; "Biochem. Biophys. Acta", 1077:65-71 (1991); and Colman, P. M.; et al.; International Publication No. WO 92/06691 (Int. App. No. PCT/AU90/00501, publication date Apr. 30, 1992) page 34, line 13, to page 35, line 16, describes another useful in vitro screen.
Enzyme Inhibition: Using the methods of screening in vitro activity described above, the following activities were observed (+10-100 μm, ++1-10 μm, +++<1.0 μm): […]
Compound `CC(=O)N[C@@H]1[C@@H](N)CC(C(=O)O)=C[C@H]1OCC(O)CO` (stereo partly drawn) [Compound 8] showed a pIC50 of 5.00 to 6.00. `CC(=O)N[C@H]1[C@H](O)C=C(C(=O)O)C[C@@H]1NC(=N)N` [Compound 94] gave a pIC50 greater than 6.00. Then `COCO[C@@H]1C=C(C(=O)O)C[C@H](N)[C@H]1NC(C)=O` [Compound 114], with 5.00 to 6.00.
